In article PMC4685510, “A Cell Biologist’s Field Guide to Aurora Kinase Inhibitors” (Frontiers in Oncology, 2015):

How the values were obtained:
[1] = target: T1, 363 human kinases (including Aurora A/B/C) (Homo sapiens, UniProt P36888); assay: biochemical; assay type: biochemical; settings: FLT3, [ATP] 50 µM
T1 sequence (P36888 27-993): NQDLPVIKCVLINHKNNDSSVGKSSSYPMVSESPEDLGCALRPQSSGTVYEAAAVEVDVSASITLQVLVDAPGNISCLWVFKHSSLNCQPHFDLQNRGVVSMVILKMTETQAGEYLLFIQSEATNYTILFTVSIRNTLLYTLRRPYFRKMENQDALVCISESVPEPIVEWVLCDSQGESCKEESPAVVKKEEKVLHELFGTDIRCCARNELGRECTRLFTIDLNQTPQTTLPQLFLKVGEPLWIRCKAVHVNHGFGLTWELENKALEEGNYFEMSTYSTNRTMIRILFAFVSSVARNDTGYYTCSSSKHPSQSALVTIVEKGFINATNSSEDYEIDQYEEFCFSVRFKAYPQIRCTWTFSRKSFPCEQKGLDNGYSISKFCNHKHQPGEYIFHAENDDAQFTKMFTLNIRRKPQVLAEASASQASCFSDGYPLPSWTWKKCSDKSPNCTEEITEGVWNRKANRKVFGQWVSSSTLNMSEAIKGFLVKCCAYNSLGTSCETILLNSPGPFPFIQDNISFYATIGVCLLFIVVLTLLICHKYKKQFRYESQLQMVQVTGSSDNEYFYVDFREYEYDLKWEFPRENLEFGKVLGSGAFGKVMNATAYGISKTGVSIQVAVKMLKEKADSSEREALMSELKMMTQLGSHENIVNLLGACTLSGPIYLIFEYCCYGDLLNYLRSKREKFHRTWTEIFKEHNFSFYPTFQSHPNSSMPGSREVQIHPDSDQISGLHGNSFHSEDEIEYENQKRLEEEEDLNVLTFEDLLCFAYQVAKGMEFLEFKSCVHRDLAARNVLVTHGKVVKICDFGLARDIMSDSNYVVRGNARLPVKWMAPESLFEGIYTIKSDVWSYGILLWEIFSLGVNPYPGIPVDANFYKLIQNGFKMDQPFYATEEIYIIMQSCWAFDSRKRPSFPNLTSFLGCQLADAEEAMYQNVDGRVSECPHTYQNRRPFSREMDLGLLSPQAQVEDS
Text: (§1) However, the Aurora A/B selectivity ratios derived from our in vitro and in vivo data can be compared to prioritize inhibitors.

[2] = target: 363 human kinases (including Aurora A/B/C) (Homo sapiens, UniProt P48730); assay: biochemical; assay type: biochemical; settings: CK1d, [ATP] 20 µM
363 human kinases (including Aurora A/B/C) (Homo sapiens, UniProt P48730), sequence (P48730 whole entry): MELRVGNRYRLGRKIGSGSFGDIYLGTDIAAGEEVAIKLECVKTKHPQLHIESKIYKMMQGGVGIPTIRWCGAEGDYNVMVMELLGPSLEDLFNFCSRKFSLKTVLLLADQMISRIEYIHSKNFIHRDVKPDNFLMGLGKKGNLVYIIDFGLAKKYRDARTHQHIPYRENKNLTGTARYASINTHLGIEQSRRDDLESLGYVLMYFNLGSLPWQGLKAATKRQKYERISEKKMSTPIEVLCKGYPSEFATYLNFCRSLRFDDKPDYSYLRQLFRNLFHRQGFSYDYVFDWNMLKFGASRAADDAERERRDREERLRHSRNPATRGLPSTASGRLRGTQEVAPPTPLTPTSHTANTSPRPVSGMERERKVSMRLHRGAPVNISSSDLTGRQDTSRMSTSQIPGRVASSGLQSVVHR
Text: as §1

[3] = target: T2, 363 human kinases (including Aurora A/B/C) (Homo sapiens, UniProt Q15831); assay: biochemical; assay type: biochemical; settings: LKB1
T2 sequence (Q15831 1-433): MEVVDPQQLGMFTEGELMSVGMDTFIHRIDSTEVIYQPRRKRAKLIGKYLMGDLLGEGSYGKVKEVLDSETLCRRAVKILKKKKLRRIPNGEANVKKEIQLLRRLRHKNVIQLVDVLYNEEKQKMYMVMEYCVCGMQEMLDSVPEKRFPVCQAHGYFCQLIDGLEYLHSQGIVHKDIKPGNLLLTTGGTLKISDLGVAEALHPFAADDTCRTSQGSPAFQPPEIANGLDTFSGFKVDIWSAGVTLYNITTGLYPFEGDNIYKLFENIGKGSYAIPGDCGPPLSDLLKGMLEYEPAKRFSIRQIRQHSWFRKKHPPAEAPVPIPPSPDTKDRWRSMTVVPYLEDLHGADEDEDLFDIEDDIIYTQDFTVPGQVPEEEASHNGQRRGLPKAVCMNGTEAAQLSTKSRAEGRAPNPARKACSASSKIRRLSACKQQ
Text: as §1

HeLa cells [4] = assay: G2 duration live imaging assay (GFP-PCNA; H2B-RFP), HeLa; assay type: cell-based, human
[5] = target: T3, full-length human Aurora A (Homo sapiens, UniProt O14965); assay: Aurora A kinase assay (ADP-Glo, Kemptide substrate)
T3 sequence (O14965 1-403): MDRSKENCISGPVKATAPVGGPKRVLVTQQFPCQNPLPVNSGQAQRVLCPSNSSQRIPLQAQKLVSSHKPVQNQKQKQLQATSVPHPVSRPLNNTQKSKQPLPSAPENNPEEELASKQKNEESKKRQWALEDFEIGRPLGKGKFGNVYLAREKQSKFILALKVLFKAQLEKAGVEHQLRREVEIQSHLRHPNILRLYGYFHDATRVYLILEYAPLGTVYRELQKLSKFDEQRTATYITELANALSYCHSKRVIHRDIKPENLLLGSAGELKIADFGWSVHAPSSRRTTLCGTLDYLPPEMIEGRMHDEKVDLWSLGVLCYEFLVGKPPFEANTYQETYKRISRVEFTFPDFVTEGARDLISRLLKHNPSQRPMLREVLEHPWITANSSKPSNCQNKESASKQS

[6] = tested on: HeLa, RPE1, and U2OS cells; assay: Cellular proliferation analysis (ATPLite, 24 h); settings: HeLa, RPE1, U2OS; 24 h (Figure 4D, Figure S2B)
[7] = target: 363 human kinases (including Aurora A/B/C) (Homo sapiens, UniProt Q16584); assay: biochemical; assay type: biochemical; settings: MLK3/MAP3K11, 500 nM
363 human kinases (including Aurora A/B/C) (Homo sapiens, UniProt Q16584), sequence (Q16584 whole entry): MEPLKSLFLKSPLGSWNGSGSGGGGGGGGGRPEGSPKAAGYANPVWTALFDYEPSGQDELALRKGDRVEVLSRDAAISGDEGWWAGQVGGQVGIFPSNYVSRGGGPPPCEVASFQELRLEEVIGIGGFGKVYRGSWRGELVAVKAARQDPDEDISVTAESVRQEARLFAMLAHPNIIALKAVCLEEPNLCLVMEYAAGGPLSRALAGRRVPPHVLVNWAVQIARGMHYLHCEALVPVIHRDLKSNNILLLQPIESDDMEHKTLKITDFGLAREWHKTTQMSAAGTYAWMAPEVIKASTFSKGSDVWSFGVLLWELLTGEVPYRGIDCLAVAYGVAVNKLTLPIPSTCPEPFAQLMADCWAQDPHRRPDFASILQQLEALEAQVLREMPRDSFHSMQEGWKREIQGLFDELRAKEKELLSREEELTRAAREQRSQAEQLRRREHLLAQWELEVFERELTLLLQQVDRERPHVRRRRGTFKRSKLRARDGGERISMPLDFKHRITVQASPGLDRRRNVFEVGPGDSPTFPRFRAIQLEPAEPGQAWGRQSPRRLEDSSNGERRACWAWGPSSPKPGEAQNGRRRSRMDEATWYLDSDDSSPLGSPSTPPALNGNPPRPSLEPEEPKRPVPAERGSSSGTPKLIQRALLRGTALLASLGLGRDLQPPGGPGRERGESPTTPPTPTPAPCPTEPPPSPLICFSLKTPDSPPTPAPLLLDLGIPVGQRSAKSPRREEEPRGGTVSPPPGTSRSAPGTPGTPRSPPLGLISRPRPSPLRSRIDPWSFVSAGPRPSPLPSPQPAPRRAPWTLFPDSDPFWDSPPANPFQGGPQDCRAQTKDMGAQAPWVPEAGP
Text: as §1

Aurora A = settings: ref 57; read-out: Aurora A IC50 (Published); cited from earlier work
Aurora B/INCENP^783–918 = target: T4, Aurora B/INCENP^783–918 (Homo sapiens, UniProt Q96GD4); assay: Aurora B/INCENP^783–918 kinase assay (ADP-Glo); assay type: biochemical
T4 construct: purchased SignalChem
T4 sequence (Q96GD4 whole entry): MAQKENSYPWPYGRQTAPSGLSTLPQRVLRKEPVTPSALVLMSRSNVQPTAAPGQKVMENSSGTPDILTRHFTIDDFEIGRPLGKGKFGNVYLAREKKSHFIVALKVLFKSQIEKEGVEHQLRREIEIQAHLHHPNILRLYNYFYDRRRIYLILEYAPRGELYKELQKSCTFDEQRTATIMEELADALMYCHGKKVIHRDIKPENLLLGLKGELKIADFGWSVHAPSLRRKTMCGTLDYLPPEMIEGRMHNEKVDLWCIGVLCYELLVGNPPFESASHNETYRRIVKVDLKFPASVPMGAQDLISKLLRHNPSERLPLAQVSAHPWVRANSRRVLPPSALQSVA
T4 sequence (Q9NQS7 783-918 partner limits assumed): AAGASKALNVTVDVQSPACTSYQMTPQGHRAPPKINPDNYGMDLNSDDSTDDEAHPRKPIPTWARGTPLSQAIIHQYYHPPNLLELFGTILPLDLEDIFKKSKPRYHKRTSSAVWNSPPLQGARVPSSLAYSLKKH

Aurora A/TPX2^1–43 = target: T5, Aurora A/TPX2^1–43 (Homo sapiens, UniProt O14965); assay: Aurora A/TPX2^1–43 kinase assay (ADP-Glo)
T5 sequence (O14965 1-403): T3 sequence (O14965 1-403)
T5 sequence (Q9ULW0 1-43 partner limits assumed): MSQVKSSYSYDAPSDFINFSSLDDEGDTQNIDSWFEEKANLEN

U2OS cells = assay: Cytokinesis assay (live imaging, YFP-α-tubulin; H2B-RFP), U2OS; assay type: cell-based; settings: Homo sapiens, cytokinesis failure, read-out: Cytokinesis IC50
HeLa cells [8] = assay: Cytokinesis assay (live imaging, YFP-α-tubulin; H2B-RFP), HeLa; assay type: cell-based, human; settings: Homo sapiens; HeLa; cytokinesis failure; read-out: Cytokinesis IC50
[9] = 100 nM, read-out: % Enzyme Activity (relative to DMSO controls)
[10] = 500 nM, read-out: % Enzyme Activity (relative to DMSO controls)
[11] = Homo sapiens, read-out: G2/M (G2 duration) IC50, HeLa
[12] = read-out: G2/M (G2 duration) IC50
[13] = fold difference in potency calculated by dividing Ki values

Q: With `O=C(O)[C@]1(Cc2cccc(Nc3nccs3)n2)CC[C@@H](Oc2cccc(Cl)c2F)CC1` [MK-5108] as the compound, how does the remaining activity at 0.1 µM [1, 9] read?
A: The remaining activity at 0.1 µM was 58.2%.

Q: What about the remaining activity at 0.5 µM [1, 10] of the same compound?
A: The remaining activity at 0.5 µM was 30.9%.

Q: What about the remaining activity at 0.1 µM [2, 9] of the same compound?
A: The remaining activity at 0.1 µM was 100%.

Q: And the remaining activity at 0.5 µM [2, 10]?
A: Its remaining activity at 0.5 µM is 86.8%.

Q: What about the remaining activity at 0.1 µM [3, 9] of the same compound?
A: Its remaining activity at 0.1 µM is 76.6%.

Q: What about the remaining activity at 0.5 µM [3, 10] of the same compound?
A: Its remaining activity at 0.5 µM is 47.4%.

Q: What about the IC50 (HeLa cells [4]; [11]) of the same compound?
A: The IC50 was 600 to 800 nM.

Q: What about the IC50 (HeLa cells [4]; [12]) of the same compound?
A: The IC50 was 816 nM.

Q: With `O=C(c1cccc(Cl)c1F)N1CCN(Cc2cccc(Nc3nccs3)n2)CC1` [MK-8745] as the compound, how does the IC50 [5] read?
A: Its IC50 is 0.23 nM.

Q: And the Ki ([5]; Aurora A Ki Mean ± SD, [ATP] = Km(ATP) (35 μM), Ki calculated from IC50 with tight-binding equation)?
A: Its Ki is 0.06 ± 0.004 nM.

Q: What about the “Selectivity ratio Aur A versus Aur A-TPX2^1–43” value [5, 13] of the same compound?
A: The value was 6.3 fold.

Q: What about the “Selectivity ratio Aur A versus Aur B-INCENP^783–918” value [5, 13] of the same compound?
A: The value was 1030 fold.

Q: What about the “Toxicity / cytotoxicity (cellular proliferation)” value [6] of the same compound?
A: The value was “not cytotoxic”.

Q: And the “% Enzyme Activity (relative to DMSO controls)” value ([1]; 500 nM)?
A: The value was 88.10%.

Q: And the remaining activity at 0.5 µM [1, 10]?
A: The remaining activity at 0.5 µM was 88.4%.

Q: What about the “% Enzyme Activity (relative to DMSO controls)” value ([2]; 500 nM) of the same compound?
A: Its value is 85.06%.

Q: And the remaining activity at 0.5 µM [2, 10]?
A: The remaining activity at 0.5 µM was 85.5%.

Q: And the “% Enzyme Activity (relative to DMSO controls)” value ([3]; 500 nM)?
A: Its value is 25.85%.

Q: What about the remaining activity at 0.5 µM [3, 10] of the same compound?
A: Its remaining activity at 0.5 µM is 26.1%.

Q: What about the “% Enzyme Activity (relative to DMSO controls)” value [7] of the same compound?
A: The value was 92.79%.

Q: And the remaining activity at 0.5 µM ([7]; read-out: % Enzyme Activity (relative to DMSO controls))?
A: Its remaining activity at 0.5 µM is 94.8%.

Q: What about the IC50 (Aurora A) of the same compound?
A: Its IC50 is 0.6 nM.

Q: And the Ki (Aurora B/INCENP^783–918; Aurora B INCENP^783-918 Ki (example dataset, Figure 2D), calculated from the example IC50)?
A: Its Ki is 58.8 nM.

Q: And the Ki (Aurora B/INCENP^783–918; Aurora B-INCENP^783–918 Ki Mean ± SD, [ATP] = Km(ATP) (10 μM))?
A: The Ki was 66.8 ± 19.6 nM.

Q: And the IC50 (Aurora B/INCENP^783–918; [ATP] = Km(ATP), example dataset)?
A: The IC50 was 118 nM.

Q: What about the IC50 (Aurora A/TPX2^1–43) of the same compound?
A: The IC50 was 0.83 nM.

Q: And the Ki (Aurora A/TPX2^1–43; Aurora A TPX2^1-43 Ki (example dataset, Figure 2D), calculated from the example IC50)?
A: The Ki was 0.36 nM.

Q: And the Ki (Aurora A/TPX2^1–43; Aurora A-TPX2^1–43 Ki Mean ± SD, [ATP] = Km(ATP) (3 μM), 40 nM TPX2^1–43)?
A: Its Ki is 0.41 ± 0.06 nM.

Q: What about the “Selectivity ratio Aur A-TPX2^1–43 versus Aur B-INCENP^783–918” value (Aurora A/TPX2^1–43; [13]) of the same compound?
A: Its value is 162 fold.

Q: And the IC50 (HeLa cells [4]; [11])?
A: The IC50 was 600 to 800 nM.

Q: And the IC50 (HeLa cells [4]; [12])?
A: The IC50 was 596 nM.

Q: With `CCn1cc(-c2ccnc3[nH]c(-c4cccc(CN(C)C)c4)cc23)c(-c2ccc(NC(=O)N(C)C)cc2)n1` [GSK1070916] as the compound, how does the IC50 (U2OS cells) read?
A: The IC50 was 6 nM.

Q: What about the IC50 (HeLa cells [8]) of the same compound?
A: The IC50 was 6 nM.
